Measurements as given in US7709566B2, “Polytetrafluoroethylene aqueous dispersion and its product” (Asahi Glass Company, Limited, priority 2005, dated 2010).

What was measured:
[1] = Measurement of 1-octanol/water partition coefficient (LogPOW) by HPLC, OECD Test Guideline 117; format: physicochemical; settings: for LogPOW: 1-octanol/water, HPLC, OECD Test Guideline 117, column temperature 40° C.; for bioaccumulation potential: judged from the LogPOW value, compared to APFO
Protocol: In accordance with OECD Test Guideline 117, 1-octanol/water partition coefficient (LogPOW) of a fluorinated emulsifier was measured by using HPLC (high performance liquid chromatography).
Conditions for the measurement were as follows: column: TOSOH ODS-120T column (φ 4.6 mm×250 mm), eluent: acetonitrile/0.6 mass % of HClO4 solution=1/1 (vol/vol %), flow rate: […], sample amount: 300 μL, column temperature: 40° C., and detection light: UV 210 nm (WO2005-42593).
HPLC was carried out on standard substances (heptanoic acid, octanoic acid, nonanoic acid and decanoic acid) having known 1-octanol/water partition coefficients, and a calibration curve was prepared from the respective elution times and octanol/water partition coefficients of the respective standard substances. Based on this calibration curve, a value of partition coefficient (LogPOW) between 1-octanol and water was calculated from the elution time by HPLC of the fluorinated emulsifier.
Further, in general, in order to judge whether or not a chemical substance is apt to be accumulated in a living organism, a testing method for measurement of a partition coefficient (LogPOW) between 1-octanol and water, is stipulated. As the testing method, in addition to “Partition Coefficient (1-octanol/water) Shake Flask Method” as stipulated in OECD test guideline 107 and in Japanese Industrial Standards Z 7260-107 (2000), a HPLC method (high-performance liquid chromatography) as stipulated and published in OECD Test Guideline 117, is used. A compound having a large partition coefficient value has a large tendency for bioaccumulation, and a compound having a small value means a small tendency for bioaccumulation. In a case where the LogPOW value is less than 3.5, it is considered proper to judge that it is not a high-concentration, and bioaccumulation is also considered to be small.

[2] = system: small animal; settings: it has been pointed out; cited from earlier work

Molecule | LogPOW [1] | bioaccumulation potential [1] | accumulation potential in a body of a small animal [2]
N.O=C(O)C(F)(OC(F)(F)C(F)(OC(F)(F)C(F)(F)F)C(F)(F)F)C(F)(F)F (stereo not drawn) [CF3CF2OCF(CF3)CF2OCF(CF3)COONH4] | 4.03 | high and higher bioaccumulation potential than APFO | –
CF3CF2OCF2CF2OCF2COONH4 | 3.13 | low | –
N.O=C(O)C(F)(F)C(F)(F)C(F)(F)C(F)(F)C(F)(F)C(F)(F)C(F)(F)F [CF3(CF2)6COONH4, ammonium perfluorooctanoate] | 3.67 | – | has an accumulation potential
